# Measured values as given in patent US11014961B2, “Self-labeling miniproteins and conjugates comprising them” (priority 2017, dated 2021).
# No end group written: not given here.
# How the values were obtained:
# [1] = Second order rate constant of the reaction between miniprotein (MP) and capture agent (CA), LC-MS TIC peak integration; type: biochemical; settings: for Second order rate constant: 0.1 mM MP, 0.5 mM CA, 5 mM TCEP, 1× selection buffer pH 7.4, RT; for Rate: Table 4, reaction rates of self-labeling miniprotein sequences; for fold increase of second order rate constant relative to MP01 / reactivity with the CA (in words): standard reaction conditions
# proteinase K = target: T1, proteinase K (Parengyodontium album, UniProt P06873); assay: Protease digestion with proteinase K (LC-MS fraction remaining); type: in vitro ADME; settings: 100 μM peptide, with 10×CA (1 mM CA)
# T1 construct: purchased Amresco
# Procedure: Reactions were performed using 100 μM peptide with […] of proteinase K for general cleavage with the addition of 1 mM CA for C11A and C11S digestions. Reactions were quenched with 49.75% water, 49.75% ACN and 0.5% TFA at selection time point and analyzed by LCMS. TIC-based integrated peak areas were used to determine the amount of material in a given time point normalized to the starting amount. These normalized values there then concerted to fraction remaining and plotted as shown.
# [2] = Thermal melting followed by circular dichroism at 222 nm; type: physicochemical; settings: CD at 222 nm, 4-95° C.
# Procedure: All experiments were performed at room temperature (˜23.5° C.) using a Jasco J-1500 spectrometer at MIT's Biophysical Instrumentation Facility (BIF). General conditions used were 10 mM sodium phosphate buffer at pH 7.45 with 5 mM TCEP (if a cysteine was present) with 50 μM peptide. CD measurements with C11S and C11A versions of Gen4 (SEQ ID NOs: 138 and 137, respectively) used the same conditions, without TCEP but with varying amount of CA (50 μM up to 500 μM depending on the desired mole ratio). Temperature melt data was obtained using a 0.5° C./minute ramp with data collected at 222 nm. […] For CD of Gen 1 (MP01; SEQ ID NO: 13), Gen1 H19L (MP01-H19L; SEQ ID NO: 62), Gen1 3 ala (MP01-T8/D10/S14A; SEQ ID NO: 69), Gen2 (MP01-Gen2; SEQ ID NO: 71) and Gen3_1 (MP01-Gen3_1; Gen 2-A17E; SEQ ID NO: 116) in their labeled and nonlabeled states, data was obtained in 12.5 mM HEPES, 50 mM NaCl, 2.5 mM MgCl2 and 2.5 mM CaCl2 at pH 7.45 with 5 mM TCEP at 50 µM peptide with or without ˜55 μM CA that had reacted for ˜2 days at room temperature. The CA labeled versions were not purified post reaction and were analyze in their reaction mixture.
# Lacking an apparent cysteine pKa modulation, the basis for Gen4's high reactivity again came into question. Both C11A (SEQ ID NO: 134) and C11S (SEQ ID NO: 135) variants were synthesized and assayed them for CA-mediated structural alteration via CD. […]
# [3] = a: average of three MP concentrations, c: labeled 1-3 times, d: labeled 1-2 times
# T1 sequence (P06873 106-384): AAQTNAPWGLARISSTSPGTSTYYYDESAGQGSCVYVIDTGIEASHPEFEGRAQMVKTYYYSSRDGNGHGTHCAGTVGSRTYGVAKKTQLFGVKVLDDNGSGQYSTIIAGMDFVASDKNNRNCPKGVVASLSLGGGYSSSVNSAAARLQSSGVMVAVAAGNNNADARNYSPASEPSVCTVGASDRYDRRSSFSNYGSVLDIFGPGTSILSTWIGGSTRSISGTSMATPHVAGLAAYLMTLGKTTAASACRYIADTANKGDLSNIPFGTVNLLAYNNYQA
substance,measurement,setting,value
MGIVHNATRFPKRCFYSFIATRQSKNSIRVSG-NH2 [MP06],Second order rate constant,[1]; [3],0.11 ± 0.01 M⁻¹ s⁻¹
MRYIYVLRLKSWCGGASARSSPRSCATKLLG [MP09],Second order rate constant,[1]; [3],0.52 ± 0.01^d M^−1 s^−1
same,initial rate (biphasic kinetics),"[1]; standard conditions, en route to being labeled twice",0.52 M⁻¹ s⁻¹
MRHYHLTCFQGFRIFRRTVDSLEMEISLG-NH2 [MP18],Rate,[1],0.17 M⁻¹ s⁻¹
MTATSSSTSRGCRPSTAQVVQRLRGLLLVVG-NH2 [MP26],Rate,[1],0.07 M⁻¹ s⁻¹
MHQKYKMAKACFFAFLAHLKKRKLYPMSG-NH2 [MP01-Gen2],fold increase of second order rate constant relative to MP01,[1],32.2 fold
MHLRMIRYLNRRRHLCHVVEIRHGLFASREIG-NH2 [MP16],Rate,[1],0.19 M⁻¹ s⁻¹
MRPCARRDRTLWCPFDSPAWFLLSGFSCG [MP05],Second order rate constant,[1],0.93 ± 0.11 M⁻¹ s⁻¹
same,Second order rate constant,[1]; [3],0.93 ± 0.11^c M^−1 s^−1
MHQKYKMTKDCFFSFLAHLKKRKLYPMSG-NH2 [MP01-H19L],fold increase of second order rate constant relative to MP01,[1],7.5 fold
MHQKYKMTKDCFFSFLAHVKKRKLYPMSG-NH2 [MP01-H19V],reactivity with the CA (in words),[1],progressively improved rate constants
MHQKYKMAKACFFAFLEHLKKRKLYPMSG-NH2 [Gen3_1],reactivity with the CA (in words),[1],increased the rate of reaction
MHHYCSKMKRRILMHYLFANTMAHRDLGTNG-NH2 [MP15],Rate,[1],10.09 M⁻¹ s⁻¹
MNQKYKMAKAAFFAFLEHLKKRKLYPMSG-NH2 [Gen4(C11A)],protease stability in presence of CA (noncovalent),proteinase K,improved protease stability
MQHEDLCTWYGFCPSGNFTPRNLRGDSDG [MP08],Second order rate constant,[1],0.04 M⁻¹ s⁻¹
same,Second order rate constant,[1]; [3],0.04^d M^−1 s^−1
MHQKYKMAKACFFAFLAHHKKRKLYPMSG-NH2 [triple alanine variant],Second order rate constant,[1],1.82 M⁻¹ s⁻¹
same,fold increase of second order rate constant relative to MP01,[1],6.3 fold
MRTPIKFAPRLSQPFCPFRKQHQLHLHPLIEG-NH2 [MP04],Second order rate constant,[1]; [3],0.24 ± 0.01 M⁻¹ s⁻¹
MQNSKHRPRRCLRLLPLLRGHLHRMFRERG-NH2 [MP21],Rate,[1],2.00 M⁻¹ s⁻¹
MHQKYKMAAACFFAFLAHLKKRKLYPMSG-NH2 [Gen 2-K9A],reactivity with the CA (in words),[1],no alteration
MVKLSGKERTTRNCFFSFLASRRTKKFNNLSG-NH2 [MP12],Rate,[1],0.23 M⁻¹ s⁻¹
MNQKYKMAKACFFAFLEHLKKRKLYPMSG-NH2 [MP01-Gen4],reactivity relative to a random cysteine containing peptide,[1],~4×10^3 times
same,second order rate constant relative to the initial MP01 scaffold,[1],~100 times
same,reaction rate with ammonium sulfate,[1]; 2 μM ammonium sulfate (so in the source),3.9 M⁻¹ s⁻¹
same,reaction rate with sodium chloride,[1]; 2 μM sodium chloride (so in the source),6.1 M⁻¹ s⁻¹
same,reactivity under denaturant guanidinium chloride,"[1]; 2-3 M guanidinium chloride, pH 7.45",near complete ablation of reactivity
same,rate constant with TMAO,[1]; trimethylamine N-oxide (TMAO) at 0.5 μM (so in the source),~9.7 M⁻¹ s⁻¹
same,rate constant with TMAO,[1]; trimethylamine N-oxide (TMAO) at 1 μM (so in the source),~7.5 M⁻¹ s⁻¹
same,thermal melting behaviour (in words),[2],"broad, gradually increasing trend"
